What was measured:
[1] = Drug metabolism assessed as (4bS)-2-(3-Methyl-1H-pyrazol-4-yl)-5,6,7,8-tetrahydropyrido-[1',2':3,4]imidazo[1,5-a]thieno[3,2-d]pyrimidin-12(4bH)-one formaldehyde adduct formation by measuring retention time at 5 nmol after 30 mins in presence of excess formaldehyde by QTOF-UPLC analysis; format: physicochemical; details: 0.5 h
[2] = target: CDK8/Cyclin C (Homo sapiens, UniProt P49336); assay: Inhibition of kinase tracer 236 binding to recombinant full-length human His-tagged CDK8/CyclinC expressed in baculovirus expression system by Lanthascreen Eu kinase binding assay
[3] = system: Mus musculus; assay: In vivo inhibition of CDC7 in BALB/c mouse xenografted with human COLO205 cells assessed as reduction in MCM2 phosphorylation at Ser40/41 residue in tumor at 100 mg/kg, po after 4 hrs by Western blot analysis; format: functional; details: COLO 205, po
[4] = Cmax in mouse at 10 mg/kg, po dosed via cassette dosing; format: ADME, organism-based; parameters: dose 10 mg/kg, route oral; details: in vivo
[5] = target: Dual specificity tyrosine-phosphorylation-regulated kinase 1A (Homo sapiens, UniProt Q13627); assay: Inhibition of recombinant full-length human GST-tagged DYRK1A expressed in baculovirus expression system by Z'-LYTE assay
[6] = target: Homeodomain-interacting protein kinase 4 (Homo sapiens, UniProt Q8NE63); assay: Inhibition of recombinant full-length human N-terminal GST-tagged HIPK4 expressed in baculovirus expression system by Z'-LYTE assay
[7] = target: T1, CDC7/DBF4 (Cell division cycle 7-related protein kinase/Activator of S phase kinase) (Homo sapiens, UniProt O00311); assay: Inhibition of N-terminal GST-fused full-length human CDC7 (1 to 574 end residues)/DBF4 (1 to 674 residues) expressed in baculovirus expression system using MCM2 as substrate preincubated with enzyme for 60 mins prior to 50 uM ATP addition by HTRF transcreener ADP assay
[8] = target: Rho-associated protein kinase 1 (Homo sapiens, UniProt Q13464); assay: Inhibition of N-terminal GST-tagged human ROCK1 catalytic domain (1 to 477 residues) expressed in baculovirus expression system using biotin-STK-substrate 2 as substrate preincubated with enzyme for 5 mins followed by ATP addition and measured after 2 hrs by TR-FRET assay
[9] = Toxicity in BALB/c mouse xenografted with human COLO205 cells assessed as effect on body weight at 50 to 100 mg/kg , po adminstered BID for 14 days and measured every 2 to 3 days; format: organism-based; details: in vivo
[10] = target: T2, Cell division cycle 7-related protein kinase (Homo sapiens, UniProt O00311); assay: Inhibition of ATP-specific reporter probe binding to CDC7 (unknown origin) assessed as equilibrium dissociation constant incubated for 60 mins by proteros reporter displacement assay
[11] = target: T1, CDC7/DBF4 (Cell division cycle 7-related protein kinase/Activator of S phase kinase); assay: Inhibition of N-terminal GST-fused full-length human CDC7 (1 to 574 end residues)/DBF4 (1 to 674 residues) expressed in baculovirus expression system using MCM2 as substrate in presence of 50 uM ATP by HTRF transcreener ADP assay
[12] = target: Dual specificity protein kinase CLK1 (Homo sapiens, UniProt P49759); assay: Inhibition of recombinant human GST-tagged CLK1 catalytic domain (129 to 484 residues) expressed in Escherichia coli by Z'-LYTE assay
[13] = target: Dual specificity tyrosine-phosphorylation-regulated kinase 1B (Homo sapiens, UniProt Q9Y463); assay: Inhibition of recombinant full-length human GST-tagged DYRK1B expressed in baculovirus expression system by Z'-LYTE assay
[14] = target: Death-associated protein kinase 1 (Homo sapiens, UniProt P53355); assay: Inhibition of recombinant human N-terminal GST-tagged DAPK1 catalytic domain (1 to 363 residues) expressed in baculovirus expression system by Adapta kinase assay
[15] = target: T1, CDC7/DBF4 (Cell division cycle 7-related protein kinase/Activator of S phase kinase); assay: Inhibition of N-terminal GST-fused full-length human CDC7 (1 to 574 end residues)/DBF4 (1 to 674 residues) expressed in baculovirus expression system using MCM2 as substrate preincubated with enzyme for 10 mins prior to 1 uM ATP addition by HTRF transcreener ADP assay
[16] = target: T2, Cell division cycle 7-related protein kinase; assay: Inhibition of CDC7 in human HeLa cells assessed as inhibition of MCM2 phosphorylation at Ser40 residue in human HeLa cells after 7 hrs by Western blot analysis; format: cell-based
[17] = system: COLO 205; assay: Antitumour activity against human COLO205 cells xenografted in Balb/c mouse assessed as inhibition of tumor growth at 50 to 100 mg/kg, po administered BID for 14 days and measured every 2 to 3 days relative to untreated control; format: functional
[18] = target: Cyclin-dependent kinase 2/cyclin E1 (Homo sapiens, UniProt P24941); assay: Inhibition of N-terminal GST-tagged full-length human CDK2 (1 to 298 residues)/Cyclin E (1 to 410 residues) expressed in baculovirus expression system using histone H1 as susbtrate after 90 mins by Kinase-Glo luminescence assay
[19] = target: Myotonin-protein kinase (Homo sapiens, UniProt Q09013); assay: Inhibition of kinase tracer 236 binding to recombinant full-length human GST-tagged DMPK expressed in baculovirus expression system by Lanthascreen Eu kinase binding assay
[20] = system: COLO 205; assay: Antiproliferative activity against human COLO205 cells assessed as reduction in cell growth after 3 days by CellTiter-Glo luminescence assay; format: functional, cell-based; details: COLO 205, 72 h
[21] = AUC(0 to 8 hrs) in mouse at 10 mg/kg, po dosed via cassette dosing; format: ADME, organism-based; parameters: time < 6 hr, dose 10 mg/kg, route oral; details: in vivo

Cc1n[nH]cc1-c1cc2nc([C@@H]3CCCCN3)[nH]c(=O)c2s1
Retention_time [1]: 4.31 min

Cc1n[nH]cc1-c1cc2nc([C@@H]3CCCCN3)[nH]c(=O)c2s1.Cl.Cl
IC50 [2]: 351 nM
inhibition in vivo at 100 mg/kg [3]: 72%
Cmax [4]: 978 ng/mL
IC50 [5]: 59 nM
IC50 [6]: 176 nM
IC50 [7]: 0.41 nM
IC50 [8]: 420 nM
Activity [9]: Non-Toxic
Kd [10]: 1.96 nM
IC50 [11]: 120 nM
IC50 [12]: 310 nM
IC50 [13]: 78.6 nM
IC50 [14]: 203 nM
IC50 [15]: 0.44 nM
IC50 [16]: 36 nM
T/C [17]: 6%
IC50 [18]: 6500 nM
IC50 [19]: 64.6 nM
EC50 [20]: 130 nM
AUC(0-t) at 6 h [21]: 1350 ng·h/mL

Reference: ChEMBL document CHEMBL4321874 (J Med Chem, 2020)
